Bridge positions count the residues as written; N and C are the ends. Square brackets hold non-standard residues; d marks the D form. Peptide text beside a SMILES is read from it.
System: CD11b/c, KIM-1 and IL-1β
Assay: Western blot of inflammatory and tubular injury markers in kidneys after renal ischemia
Assay type: in vivo, rat
Conditions: 15 μg/kg/h for 24 h, renal clamping 30 min, FIG. 6
Procedure: Bifunctional hormone #33 was infused at an infusion rate of 15 μg/kg/h for 24 h using Alzet™ minipumps. The proteins were identified with specific antibodies. (A) Western blot. (B) Histograms showing the relative abundance of the markers.
Renal ischemia elicits increased expression of inflammatory markers such as IL-1, IL-18, Tumor Necrosis Factor alpha (TNF-α) and CD11b (neutrophil marker; evidence of neutrophil infiltration of the tissue) as well as tubular epithelial markers such as KIM-1, NGAL and NAG. There is considerable interest in these markers since these markers are expressed earlier than the observed rise in serum creatinine levels. Therefore, diagnosis of acute kidney injury based on the markers allows for earlier treatment of the patients which may produce better outcomes in terms of dialysis need and mortality. The effect of the bifunctional hormone #33 on the expression of inflammatory and tubular injury markers was assessed using the animal model described in Example 5.
Preparation of dosing solutions. Peptide #33 was infused for 24 h at an infusion rate of 15 μg/Kg/h using Alzet™ minipumps.
Western blotting. Fresh kidneys were rapidly dissected and homogenized with a tissue homogenizer in ice cold lysis buffer: 20 mM Tris, 135 mM NaCl, 1% NP-40™, 0.1% SDS, 10% glycerol containing Complete-Mini Protease Inhibitor Cocktail™ (Roche). Following a 15-min incubation on ice, samples were centrifuged at 13,000 rpm for 5 min at 4° C. and the supernatants containing solubilized protein extracts were collected. Protein samples (40 ug protein) were resolved on 10% SDS polyacrylamide gel electrophoresis and transferred to PVDF membranes (Amersham, Pharmacia). Non-specific binding was eliminated by incubating membranes for 1 h at room temperature in a solution of 5% non-fat milk in TBST (10 mM Tris, 150 mM NaCl, 0.2% Tween-20). […]

CC[C@H](C)[C@@H]1NC(=O)[C@H](CCCNC(=N)N)NC(=O)[C@H](CC(=O)O)NC(=O)[C@H](CCSC)NC(=O)[C@H](CCCNC(=N)N)NC(=O)CNC(=O)CNC(=O)[C@H](Cc2ccccc2)NC(=O)[C@@H](NC(=O)[C@H](CCSC)NC(=O)[C@@H]2CCCN2C(=O)[C@H](CCCCN)NC(=O)CNC(=O)[C@H](Cc2c[nH]c3ccccc23)NC(=O)[C@H](CCCNC(=N)N)NC(=O)[C@@H](Cc2ccccc2)NC(=O)[C@H](Cc2c[nH]cn2)NC(C)=O)CSSC[C@@H](C(=O)N[C@@H](CC(N)=O)C(=O)N[C@@H](CO)C(=O)N[C@@H](Cc2ccccc2)C(=O)N[C@@H](CCCNC(=N)N)C(=O)N[C@@H](Cc2ccc(O)cc2)C(N)=O)NC(=O)CNC(=O)[C@H](CC(C)C)NC(=O)CNC(=O)[C@H](CO)NC(=O)[C@H](CCC(N)=O)NC(=O)[C@H](C)NC(=O)CNC1=O [SEQ ID NO: 33, Ac-H-f-R-W-G-K-P-M-[C-F-G-G-R-M-D-R-I-G-A-Q-S-G-L-G-C]-N-S-F-R-Y-NH2] (Ac-H[dF]RWGKPMCFGGRMDRIGAQSGLGCNSFRY-NH2; disulfide 9-25)
reduced the expression: expression of CD11b/c (neutrophil marker) in kidney | expression of IL-1β (inflammatory cytokine) in kidney | expression of KIM-1 (tubular injury marker) in kidney
